Laboratory results taken from patent US20240158453A1, “Nucleic Acids That Manipulate Immune Pathways” (Children`s Medical Center Corporation, priority 2017, published 2024).
Starred links: 1 amine or outer side, 2 acyl side, 3 side chain; linkers in the order of their positions; H or OH if unused. Positions of bridges follow the written chain, without caps; N, C: chain ends. Non-standard residues stand in square brackets, D forms with d. Residues, ends and D or L forms follow the SMILES beside them. Chains are numbered I, II in the order given. *: point of attachment. Actinocin(9to1) = Cc1c2oc3c(C)ccc(C(=O)[*:1])c3nc-2c(C(=O)[*:2])c(N)c1=O; NMeV = CN[C@H](C(=O)O)C(C)C; Cbz = O=C(OCc1ccccc1)*; Sar = CNCC(=O)O; CH2F = FC*

Experiments:
TLR4 = target: T1, TLR4 (Mus musculus, UniProt Q9JHF9+Q9QUK6); experiment: Isolation of protein complexes associated with activated TLR4; type: cell-based; settings: iBMDMs, LPS 100 ng/ml, within minutes
T1 construct: endogenous in cells; host or cells: WT iBMDMs
T1 sequence (Q8R4K2 whole entry): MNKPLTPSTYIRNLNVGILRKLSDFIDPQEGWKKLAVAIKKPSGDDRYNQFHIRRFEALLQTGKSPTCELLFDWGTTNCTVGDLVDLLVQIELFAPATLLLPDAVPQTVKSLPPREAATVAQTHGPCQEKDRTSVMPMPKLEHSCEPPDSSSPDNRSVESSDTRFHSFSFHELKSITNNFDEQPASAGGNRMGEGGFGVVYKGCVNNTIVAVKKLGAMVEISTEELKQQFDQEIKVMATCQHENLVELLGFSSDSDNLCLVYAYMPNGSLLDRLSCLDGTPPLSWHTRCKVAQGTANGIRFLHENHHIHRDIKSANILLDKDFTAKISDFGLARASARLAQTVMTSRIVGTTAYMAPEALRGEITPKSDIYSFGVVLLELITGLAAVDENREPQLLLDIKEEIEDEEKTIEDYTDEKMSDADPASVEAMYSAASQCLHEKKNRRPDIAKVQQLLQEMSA
T1 sequence (Q9QUK6 26-835): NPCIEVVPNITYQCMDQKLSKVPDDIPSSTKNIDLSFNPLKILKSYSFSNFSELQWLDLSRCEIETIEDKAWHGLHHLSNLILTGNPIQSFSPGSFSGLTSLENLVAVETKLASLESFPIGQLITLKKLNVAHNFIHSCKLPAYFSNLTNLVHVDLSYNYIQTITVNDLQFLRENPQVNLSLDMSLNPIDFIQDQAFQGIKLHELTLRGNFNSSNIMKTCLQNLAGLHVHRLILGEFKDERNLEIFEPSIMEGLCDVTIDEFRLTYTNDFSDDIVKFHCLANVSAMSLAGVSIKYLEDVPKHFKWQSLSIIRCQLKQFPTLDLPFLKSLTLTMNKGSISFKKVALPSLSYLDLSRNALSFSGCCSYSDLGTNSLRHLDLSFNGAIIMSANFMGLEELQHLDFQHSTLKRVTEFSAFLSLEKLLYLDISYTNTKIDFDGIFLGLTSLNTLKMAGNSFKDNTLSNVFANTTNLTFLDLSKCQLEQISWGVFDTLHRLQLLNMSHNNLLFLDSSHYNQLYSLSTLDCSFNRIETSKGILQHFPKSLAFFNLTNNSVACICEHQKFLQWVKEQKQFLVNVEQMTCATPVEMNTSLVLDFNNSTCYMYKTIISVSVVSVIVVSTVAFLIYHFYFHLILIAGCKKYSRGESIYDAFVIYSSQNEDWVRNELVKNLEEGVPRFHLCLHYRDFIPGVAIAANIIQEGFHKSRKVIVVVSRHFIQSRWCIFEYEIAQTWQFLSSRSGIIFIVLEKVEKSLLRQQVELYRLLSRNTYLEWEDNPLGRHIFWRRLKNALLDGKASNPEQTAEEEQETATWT
T1 sequence (Q9JHF9 19-160): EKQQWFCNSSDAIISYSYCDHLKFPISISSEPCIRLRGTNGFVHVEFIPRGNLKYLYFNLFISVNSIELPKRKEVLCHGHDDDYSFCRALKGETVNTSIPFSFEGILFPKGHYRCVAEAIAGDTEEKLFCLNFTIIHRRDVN
T1 sequence (P22366 whole entry, further chain): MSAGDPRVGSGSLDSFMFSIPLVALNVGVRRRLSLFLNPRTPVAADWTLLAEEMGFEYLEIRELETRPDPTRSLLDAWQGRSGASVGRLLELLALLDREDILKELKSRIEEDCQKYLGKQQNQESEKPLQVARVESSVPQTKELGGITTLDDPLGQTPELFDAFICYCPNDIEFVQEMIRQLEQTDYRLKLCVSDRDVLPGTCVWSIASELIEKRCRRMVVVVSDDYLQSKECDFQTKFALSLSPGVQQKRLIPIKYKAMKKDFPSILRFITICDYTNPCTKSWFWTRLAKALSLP
T1 sequence (Q8CFA1 whole entry, further chain): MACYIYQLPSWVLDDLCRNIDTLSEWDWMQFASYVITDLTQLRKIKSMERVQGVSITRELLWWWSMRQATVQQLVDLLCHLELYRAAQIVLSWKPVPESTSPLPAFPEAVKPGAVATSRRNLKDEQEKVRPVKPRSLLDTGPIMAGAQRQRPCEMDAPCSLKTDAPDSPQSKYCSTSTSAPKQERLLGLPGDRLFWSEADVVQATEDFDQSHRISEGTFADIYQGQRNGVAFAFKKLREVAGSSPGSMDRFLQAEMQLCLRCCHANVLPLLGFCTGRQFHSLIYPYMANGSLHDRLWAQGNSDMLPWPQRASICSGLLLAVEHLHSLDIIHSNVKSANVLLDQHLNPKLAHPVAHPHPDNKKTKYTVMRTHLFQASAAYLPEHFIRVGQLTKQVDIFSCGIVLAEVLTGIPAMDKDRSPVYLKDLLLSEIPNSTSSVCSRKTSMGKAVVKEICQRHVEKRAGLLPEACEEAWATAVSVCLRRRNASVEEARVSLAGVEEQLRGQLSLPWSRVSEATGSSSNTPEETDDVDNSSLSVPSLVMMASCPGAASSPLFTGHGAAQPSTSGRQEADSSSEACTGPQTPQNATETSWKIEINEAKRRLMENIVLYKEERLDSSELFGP
Protocol: For isolation of protein complexes associated with activated TLRs, cells were lysed using a modified lysis buffer containing 50 mM HEPES, 150 mM NaCl, 0.5% DDM (n-Dodecyl-β-D-Maltoside), 0.05% CHS (cholesteryl hemisuccinate). This buffer is suitable for the isolation of membrane protein complexes. 0.5 μg of biotinylated anti-TLR4 (Sal5-21) antibody was used (per sample) to capture the TLR4 signaling complex with streptavidin agarose. 15 μl (bed volume) of anti-HA agarose was used (per sample) to capture the TLR9-HA signaling complex. Immunoprecipitates were washed 3 times with the modified lysis buffer and analyzed by western blot.

TBK1 = experiment: Western analysis of TBK1 activation in primary BMDMs stimulated with TLR ligands; type: cell-based
Protocol: (§1) Western blotting and immunoprecipitation. For western analysis of signaling pathway activation, primary BMDMs (1×10^6) or iBMDMs (0.5×10^6) were seeded in 12 well plates and stimulated with ligands for indicated periods, and subsequently lysed in 300 μl 1×SDS containing 8 M UREA. Lysates were incubated at 65° C. for 15 min. Before SDS-PAGE separation, lysates were passed through a BD 1 ml sub-Q syringe attached to a 26G needle to reduce viscosity. 15 μl of individual samples (15-20 μg protein from whole cell extract) were separated by SDS-PAGE followed by western analysis.

IRF3 = experiment: Western analysis of IRF3 activation in primary BMDMs stimulated with TLR ligands; type: cell-based
Protocol: as §1

AKT = experiment: Western analysis of AKT phosphorylation in primary BMDMs stimulated with TLR ligands; type: cell-based; settings: primary WT BMDMs
Protocol: as §1

primary BMDMs [1] = experiment: Seahorse metabolic analysis (ECAR, OCR) of TLR-induced glycolysis; type: cell-based; settings: for ECAR / mitochondrial oxygen consumption (OCR): primary BMDMs or iBMDMs stimulated with the TLR ligand; for TLR-induced ECAR increase: primary BMDMs with inhibitor (2-DG 25 mM; Actinomycin D 1.5 μg/ml; BX795 5 μM; MRT67307 2.5 μM; Triciribine 20 μM), stimulated with LPS, P3C, R848
Protocol: Seahorse Metabolic Analysis. Extracellular acidification rate (ECAR) and oxygen consumption rate (OCR) were measured with a Seahorse XFe96 Extracellular Flux Analyzer instrument primary BMDMs and iBMDMs
For real-time experiment, primary BMDMs (5×10^4 per well) and iBMDMs (7.5×10^4 per well) were seed in a Seahorse 96 well plate in complete DMEM medium. Cells were allowed to attach to the assay plate for 4-5 hours, then cells were washed one time with serum-free Seahorse Assay Medium and incubated in Seahorse Assay Medium containing 5% FBS, 10 mM Glucose and 2 mM Glutammine in 37° C. incubator without CO2 for 60 min. ECAR and OCR was measured under basal conditions, after treatment with TLR ligands (LPS 1 μg/ml; P3C 1 μg/ml; R848 1 μg/ml) or inhibitors (and their combination). In the assays which required pre-treatment with inhibitors, chemical inhibitors were injected into the wells by the Seahorse Analyzer, and the incubation time were allowed to proceed for 45 min, prior to the injection of TLR ligands. […] Data represent mean±SEM of triplicate wells.

[2] = test system: Myd88-/-/Trif-/- iBMDMs expressing MyD88-RIP3; experiment: Microscopy imaging of cell morphology; type: cell-based, murine
Protocol: Microscopy imaging of cell morphology and live cell imaging. To determine cell morphology after TLR stimulation, Myd8^−/−/Trif^−/− iBMDMs expressing MyD88 and MyD88-RIP3 were seeded in 12-well plates (0.5×10^6 per well) and were subjected to indicated treatments (Staurosporine 1 μM; TLR ligands 1 μg/ml) to induce cell death. For static image capture, a Nikon Eclipse TS100 microscope was used with 40× magnification. Images were processed with the “NIS-Elements F” software. Representative images were chosen from at least three randomly chosen fields from one representative experiment of three independent experiments.

PARP = PARP cleavage by western analysis; type: cell-based, murine; settings: Myd88-/-/Trif-/- iBMDMs expressing MyD88-RIP3, TLR ligands or staurosporine 1 μM, 6 hr
Protocol: as §1

myddosome = target: T2, myddosome (UniProt P0AES6+P22366); experiment: Coumermycin-induced myddosome formation in Myd88-/-/Trif-/- iBMDMs expressing 3×FLAG-MyD88-GyrB; type: cell-based, murine; settings: CM 0.5 μM
T2 construct: expressed in transfected cells; host or cells: Myd88-/-/Trif-/- iBMDMs, retroviral transduction (pMSCV-IRES-GFP)
Protocol: (§2) Gene expression analysis and ELISA. RNA was isolated from cell cultures using Qiashedder (Qiagen) and GeneJET RNA Purification Kit (Life Technologies). Purified RNA was analyzed for gene expression on a CFX384 real time cycler (Bio-rad) using TaqMan RNA-to-CT 1-Step Kit (Applied Biosystems) with probes specific for Rsad2, II-1b, Il-6 and Gapdh.
For myddosome isolation, iBMDMs (5×10^6) were stimulated with ligands for indicated times, and subsequently lysed in 400 μL of lysis buffer containing 50 mM Tris-HCl (pH 7.5), 150 mM NaCl, 5% Glycerol, 1 mM Sodium dioxycholate and 1% NP40. Protease inhibitors and phosphatase inhibitors were added prior to cell lysis. Lysates were spun at top speed for 15 minutes at a table-top centrifuge in the cold room (at 4° C.). The cleared supernatants were collected and 80 μL of the supernatants was saved as sample inputs. 0.5 μg of the anti-MyD88 antibody with 15 15 μl (bed volume) of protein G sepharose (for endogenous MyD88) or 15 μl (bed volume) of anti-FLAG (M2) agarose (for 3×FLAG-MyD88 alleles) was added to the remaining supernatants and the incubation were allowed to proceed for 4-5 hr at 4° C. on a nutator. The beads containing the protein complexes were then washed for 3 times with lysis buffer, and 60 μL of SDS loading buffer was added. The protein complexes were further eluted by heating at 65° C. for 15 minutes. A portion of eluted protein complexes (20 μl) were separated by SDS-PAGE and analyzed by western blot.
Cells were fixed at room temperature for 30 min, permeabilized with 0.2% Triton X-100 for 5 min at room temperature and […] with 2% goat serum in PBS supplemented with 50 mM ammonium chloride. Primary and secondary antibody staining were performed following product instructions. Working concentrations of primary antibodies were used as the following: pTBK1 (1:100), pp 38 (1:100), FLAG (M2) (1:100). Samples were imaged by the Zeiss 880 laser scanning confocal microscope.

glycolysis = experiment: 2-DG treatment of TLR-activated cells (Example 6); type: cell-based
Myd88-/-/Trif-/- iBMDMs = experiment: PI staining and LDH release quantification (TLR-induced necroptosis); type: cell-based, murine; settings: MyD88-RIP3 expressing cells; GSK872 2.5 μM; Nec-1 5 μM; ZVAD 10 μM
Protocol: (§3) PI staining and LDH release quantification. For experiments measuring end-point PI staining, PI (5 μM) was included in the culture media to monitor transient pore formation at the last 30 min for each incubation period. A Tecan plate reader was used to measure PI staining (excitation 535 nm, emission 617 nm). Supernatants were assayed for LDH release freshly after stimulation time courses using the Pierce LDH cytotoxicity colorimetric assay kit per the manufacturer's instruction. The same Tecan plate reader was used to measure LDH release (absorbance 490 nm and 680 nm). Cells treated with detergent-containing lysis buffer were used as positive control for PI staining, the resulted supernatants from treated cells were used as positive control for LDH release quantification.
Generation of synthetic MyD88 molecules. To generate MyD88-NpLxIS and MyD88 CpLxIS alleles, the cDNA sequence encoding the STING pLxIS motif (340-378 a.a.) was fused in tandem then attached to the cDNA sequence encoding the MyD88 protein either at the 5-prime end (for MyD88-NpLxIS) or at the 3-prime end (for MyD88-CpLxIS). The fusion cDNAs were then synthesized as gBLOCKs via IDT. The mutant alleles were also synthesized as gBLOCKs. To generate the MyD88-RIP3 allele, the cDNA sequence encoding the full-length RIP3 was attached the MyD88-encoding cDNA sequence at the 3-prime end. The fusion cDNA was then synthesized as a gBLOCK via IDT. All synthetic DNA sequences were optimized to avoid internal repeats and for optimal expression in murine cells via the IDT online program.

primary BMDMs [3] = experiment: LDH release from primary BMDMs stimulated with LPS in the presence of inhibitors; type: cell-based; settings: 18 hr
Protocol: as §3

[4] = test system: Il-1b and Il-6 transcripts; experiment: qPCR of TLR-induced Il-1b and Il-6 transcripts in primary BMDMs; type: cell-based; settings: primary BMDMs pretreated with ActD 1.5 μg/ml for 40 min, TLR ligands 4 h
Protocol: as §2

lipopolysaccharide [LPS]
recruitment of endogenous MyD88, IRAK2 and IRAK4 to TLR4 (TLR4): inducibly recruited
TBK1 activation (pTBK1) (TBK1): activated
IRF3 activation (pIRF3) (IRF3): activated
AKT phosphorylation (AKT): induced
ECAR (primary BMDMs [1]): increased ECAR rapidly
mitochondrial oxygen consumption (OCR) (primary BMDMs [1]): without causing discernible changes

CN[C@@H]1C[C@H]2O[C@@](C)([C@@H]1OC)n1c3ccccc3c3c4c(c5c6ccccc6n2c5c31)C(=O)NC4 [staurosporine]
cell morphology ([2]; 1 hr post-stimulation, TLR ligands or staurosporine 1 μM): membrane blebbing, generation of apoptotic bodies/vesicles
PARP cleavage (PARP): induced PARP cleavage

coumermycin [CM]
myddosome formation (myddosome): induced myddosome formation
p38 activation (nuclear staining pattern) (myddosome; 30 min): clearly activated
pTBK1 staining of MyD88 specks (myddosome; 30 min): stained positive for pTBK1
phosphorylated p38 (pp38) within MyD88 specks (myddosome; 30 min): not detected within MyD88 specks
cells with distinct MyD88 specks (myddosome; 30 min, immunofluorescence): more than 60%
Il-1b expression (myddosome; 4 hr, qPCR): comparable to that induced by LPS and P3C treatment

OCC1OC(O)CC(O)C1O (stereo not shown) [2-DG]
TLR-induced ECAR increase (primary BMDMs [1]): blocked
cytokine gene transcription versus translation (glycolysis): uncoupled cytokine gene transcription from translation
host responses at the receptor proximal (glycolysis): did not affect

O=C(NCCCNc1nc(Nc2cccc(NC(=O)N3CCCC3)c2)ncc1I)c1cccs1 [BX795]
TLR-induced ECAR increase (primary BMDMs [1]): dampened

CC(C)S(=O)(=O)c1ccc2nccc(Nc3ccc4scnc4c3)c2c1 [GSK872]
morphological changes of TLR-stimulated MyD88-RIP3 cells with inhibitor pre-treatment ([2]; GSK872 2.5 μM): could be suppressed
TLR-induced LDH release (cell death) with inhibitor (Myd88-/-/Trif-/- iBMDMs): blocked
TLR-induced PI staining (membrane rupture) with inhibitor (Myd88-/-/Trif-/- iBMDMs): blocked

CN1C(=O)C(Cc2c[nH]c3ccccc23)NC1=S (stereo not shown) [Nec-1]
prevention of ZVAD plus LPS induced necroptosis (primary BMDMs [3]; primary BMDMs): could be prevented
TLR-induced LDH release (cell death) with inhibitor (Myd88-/-/Trif-/- iBMDMs): unaffected
TLR-induced PI staining (membrane rupture) with inhibitor (Myd88-/-/Trif-/- iBMDMs): unaffected

CCOCc1nc2c(N)nc3ccccc3c2n1CC(C)(C)O [R848]
TBK1 activation (pTBK1) (TBK1): activated
AKT phosphorylation (AKT): induced AKT phosphorylation
ECAR (primary BMDMs [1]): increased ECAR rapidly
mitochondrial oxygen consumption (OCR) (primary BMDMs [1]): without causing discernible changes

O=C(NCCCNc1nc(Nc2cccc(CN3CCOCC3)c2)ncc1C1CC1)C1CCC1 [MRT67307]
TLR-induced ECAR increase (primary BMDMs [1]): dampened

COC(=O)C[C@H](NC(=O)[C@H](C)NC(=O)[C@@H](NC(=O)OCc1ccccc1)C(C)C)C(=O)CF [ZVAD] (Cbz-Val-Ala-Asp(OMe)-CH2F)
necroptosis (LDH release) of primary BMDMs (primary BMDMs [3]; ZVAD 10 μM pre-treatment followed by LPS): induced necroptosis
TLR-induced LDH release (cell death) with inhibitor (Myd88-/-/Trif-/- iBMDMs): failed to prevent
TLR-induced PI staining (membrane rupture) with inhibitor (Myd88-/-/Trif-/- iBMDMs): failed to prevent

Cc1c2oc3c(C)ccc(C(=O)N[C@@H]4C(=O)N[C@H](C(C)C)C(=O)N5CCC[C@H]5C(=O)N(C)CC(=O)N(C)[C@@H](C(C)C)C(=O)O[C@@H]4C)c3nc-2c(C(=O)N[C@@H]2C(=O)N[C@H](C(C)C)C(=O)N3CCC[C@H]3C(=O)N(C)CC(=O)N(C)[C@@H](C(C)C)C(=O)O[C@@H]2C)c(N)c1=O [actinomycin D] (I: T[dV]P[Sar][NMeV] / II: T[dV]P[Sar][NMeV]; ester I:1-I:C, II:1-II:C; linker I:N-II:N via Actinocin(9to1))
TLR-induced transcription of Il-1b and Il-6 [4]: prevented
TLR-induced ECAR increase (primary BMDMs [1]): still able to increase ECAR
